Results as given in article PMC6943619, “Synthesis and Pharmacological Evaluation of Hybrids Targeting Opioid and Neurokinin Receptors” (Molecules, 2019).
Where two headings read alike, the source gives them in different places. Where a SMILES comes first, the peptide text is derived from it. Bridges are numbered along the chain shown (N, C = ends). [ ]: non-standard residue; d: D form. Nle = CCCC[C@H](N)C(=O)O

What was measured:
[1] = target: T1, human opioid receptor MOR (Homo sapiens, UniProt P35372); assay: Radioligand binding assay, displacement of [3H]DAMGO; settings: displacement of [3H]DAMGO from membranes of CHO cells transfected with human MOR, 50 mM Tris/HCl pH 7.4, 0.5% BSA, peptidase inhibitors, 2 h at 25 °C, mean ± SEM, n ≥ 3
T1 construct: purchased PerkinElmer (Krakow, Poland); host or cells: CHO cell membranes
Experimental: A radioligand binding assay was performed to determine the opioid receptor (OR) binding affinities of the novel analogs using commercially available membranes of Chinese hamster ovary cells (CHO) transfected with human recombinant ORs. [^3H]DAMGO, [^3H]deltorphin-2, and [^3H]U-69593 were used as the radioligands for MOR, DOR, and KOR, respectively. Tyr-[D-Lys-Phe-Phe-Asp]NH2 (1) was used as a reference opioid compound. […] None of them acquired significant DOR affinity.
(§1) To determine the affinity of peptide analogs to respective receptors, competition binding experiments were performed, as described in detail elsewhere.
Commercial membranes of CHO cells stably expressing either human ORs or NK1 receptor were used. [^3H]DAMGO, [^3H]deltorphin-2, and [^3H]U-69593 were employed as the competing radioligands for MOR, DOR, and KOR, respectively, while [^3H][Sar^9, Met(O2)^11]SP was utilized for the NK1 receptor. Membranes were incubated in a 0.5 mL volume of 50 mM Tris/HCl (pH = 7.4), 0.5% bovine serum albumin (BSA), with a number of peptidase inhibitors (bacitracin, bestatin, captopril) and various concentrations of radioligands for 2 h at 25 °C. Nonspecific binding was assessed in the presence of […] naloxone for ORs or SP for NK1 receptor.
The pharmacological terminology adopted in this paper is consistent with International Union of Basic and Clinical Pharmacology (IUPHAR) recommendations. Concentration–response curves were analyzed by nonlinear regression using Graph Pad Prism 6.0 (La Jolla, CA, USA). […]. […] Concentration–response curves were fitted with the four-parameter logistic nonlinear regression model (1) Effect=baseline+Emax−baseline/1+10^logEC50−X·n where X is the agonist concentration and n is the Hill coefficient. Ligand efficacy was expressed as intrinsic activity (α) calculated as a ratio of the peptide Emax to the Emax of the standard agonist (Supplementary Materials, Figure S7). […]. All statistical analyses were performed using Graph Pad Prism 6.0 (La Jolla, CA, USA). Differences between groups were analyzed with one-way ANOVA and a post hoc multiple comparison by the Student–Newman–Keuls test. A probability level of 0.05 or smaller was used to indicate statistical significance.

[2] = target: T2, human opioid receptor DOR (Homo sapiens, UniProt P41143); assay: Radioligand binding assay, displacement of [3H]deltorphin-2; settings: displacement of [3H]deltorphin-2 from membranes of CHO cells transfected with human DOR, 50 mM Tris/HCl pH 7.4, 0.5% BSA, peptidase inhibitors, 2 h at 25 °C, mean ± SEM, n ≥ 3
T2 construct: purchased PerkinElmer (Krakow, Poland); host or cells: CHO cell membranes
Experimental: A radioligand binding assay was performed to determine the opioid receptor (OR) binding affinities of the novel analogs using commercially available membranes of Chinese hamster ovary cells (CHO) transfected with human recombinant ORs. […] Tyr-[D-Lys-Phe-Phe-Asp]NH2 (1) was used as a reference opioid compound.
as §1
Commercial membranes of CHO cells stably expressing either human ORs or NK1 receptor were used. […] Membranes were incubated in a 0.5 mL volume of 50 mM Tris/HCl (pH = 7.4), 0.5% bovine serum albumin (BSA), with a number of peptidase inhibitors (bacitracin, bestatin, captopril) and various concentrations of radioligands for 2 h at 25 °C.
The pharmacological terminology adopted in this paper is consistent with International Union of Basic and Clinical Pharmacology (IUPHAR) recommendations. Concentration–response curves were analyzed by nonlinear regression using Graph Pad Prism 6.0 (La Jolla, CA, USA). […] Concentration–response curves were fitted with the four-parameter logistic nonlinear regression model (1) Effect=baseline+Emax−baseline/1+10^logEC50−X·n where X is the agonist concentration and n is the Hill coefficient. Ligand efficacy was expressed as intrinsic activity (α) calculated as a ratio of the peptide Emax to the Emax of the standard agonist (Supplementary Materials, Figure S7). […] All statistical analyses were performed using Graph Pad Prism 6.0 (La Jolla, CA, USA). Differences between groups were analyzed with one-way ANOVA and a post hoc multiple comparison by the Student–Newman–Keuls test. A probability level of 0.05 or smaller was used to indicate statistical significance.

human NK1 = human NK1 (Homo sapiens, UniProt P25103); assay: Calcium mobilization functional assay, agonist mode, CHONK1 cells; format: cell-based; parameters: expressed in transfected cells; host or cells: CHO cells (gift of Prof. T. Costa, ISS, Rome); settings: for NK1 α ± SEM: efficacy (intrinsic activity), Emax relative to SP
DOR = target: T3, DOR (Homo sapiens, UniProt P41143); assay: Calcium mobilization functional assay, agonist mode; format: cell-based; settings: CHO cells co-expressing DOR and GαqG66Di5, n = 5; for DOR pEC50 (CL95%): Fluo-4 AM calcium signal; for DOR α ± SEM: efficacy (intrinsic activity), Emax relative to DPDPE, mean ± SEM
T3 construct: expressed in transfected cells; host or cells: CHO cells (University of Ferrara), co-expressing GαqG66Di5

human KOR = target: T4, human KOR (Homo sapiens, UniProt P41145); assay: as above; format: cell-based; settings: for KOR α ± SEM: efficacy (intrinsic activity), Emax relative to dynorphin A, mean ± SEM
T4 construct: expressed in transfected cells; host or cells: CHO cells (University of Ferrara), co-expressing Gαqi5

mice = assay: Stool collection (stool mass, stool water content); format: in vivo; settings: repeated i.p. injections 5 mg/kg, stool collected 90 min after injection on Days 1–6, compared to control group, n = 10
Experimental: In order to determine the influence of prolonged administration of the tested compounds on gastrointestinal passage, stool was collected for six days from mice used in the tolerance development test.
Figure 5 Effect of repeated i.p. injections of saline and the tested peptides on stool mass (A), stool water content (B), food intake (C), and water consumption (D). The data represent mean ± SEM, n = 10. Statistical significance was assessed using one-way ANOVA and a post hoc multiple comparison by the Student–Newman–Keuls test. *** p < 0.001, as compared to control.
After the i.p. injections of saline or peptides (Days 1–6), mice were placed in a separate clean cages and stool was collected for a period of 90 min. Fecal pellets were collected immediately after expulsion to avoid evaporation and placed in closed 1.5 mL tubes. Tubes were weighed to obtain the wet weight of the stool. Then, the tubes were opened and stool was dried overnight at 65 °C and reweighed to obtain the dry weight. The stool water content was calculated from the difference between the wet and dry stool weights.

[3] = CHO cells co-expressing human KOR and Gαqi5, n = 5

T3 sequence (P41143 whole entry): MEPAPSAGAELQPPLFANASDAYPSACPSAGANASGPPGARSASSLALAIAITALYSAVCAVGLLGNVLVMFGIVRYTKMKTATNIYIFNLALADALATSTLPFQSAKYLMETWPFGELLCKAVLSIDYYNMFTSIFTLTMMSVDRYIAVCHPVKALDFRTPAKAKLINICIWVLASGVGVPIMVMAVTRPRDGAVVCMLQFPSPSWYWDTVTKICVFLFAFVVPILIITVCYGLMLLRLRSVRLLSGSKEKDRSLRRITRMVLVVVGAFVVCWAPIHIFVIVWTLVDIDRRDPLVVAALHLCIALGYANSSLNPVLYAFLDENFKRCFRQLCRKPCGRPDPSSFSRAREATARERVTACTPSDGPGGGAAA
Chain of human NK1 (P25103 whole entry): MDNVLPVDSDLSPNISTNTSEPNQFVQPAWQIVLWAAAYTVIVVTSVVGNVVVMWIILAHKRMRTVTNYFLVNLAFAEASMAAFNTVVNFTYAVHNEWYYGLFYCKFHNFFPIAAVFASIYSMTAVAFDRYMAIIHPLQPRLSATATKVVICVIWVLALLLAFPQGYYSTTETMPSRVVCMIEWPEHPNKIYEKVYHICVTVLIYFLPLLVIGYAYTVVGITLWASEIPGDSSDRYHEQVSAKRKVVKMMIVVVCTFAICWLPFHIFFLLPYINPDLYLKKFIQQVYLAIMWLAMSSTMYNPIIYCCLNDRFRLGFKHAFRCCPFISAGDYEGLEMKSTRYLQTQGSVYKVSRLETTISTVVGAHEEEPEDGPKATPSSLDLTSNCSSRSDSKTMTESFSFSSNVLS
T4 sequence (P41145 whole entry): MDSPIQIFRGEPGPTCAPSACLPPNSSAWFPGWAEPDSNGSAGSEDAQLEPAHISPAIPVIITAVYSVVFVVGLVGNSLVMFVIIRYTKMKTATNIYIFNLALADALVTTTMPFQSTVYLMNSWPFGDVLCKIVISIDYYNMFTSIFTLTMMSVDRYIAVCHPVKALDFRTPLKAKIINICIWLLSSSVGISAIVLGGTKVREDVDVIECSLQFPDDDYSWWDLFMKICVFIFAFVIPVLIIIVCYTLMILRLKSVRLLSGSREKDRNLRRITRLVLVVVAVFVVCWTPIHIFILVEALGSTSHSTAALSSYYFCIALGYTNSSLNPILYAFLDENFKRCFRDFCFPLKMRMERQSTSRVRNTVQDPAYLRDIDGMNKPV
T2 sequence (P41143 whole entry): as the sequence (P41143 whole entry) above
T1 sequence (P35372 whole entry): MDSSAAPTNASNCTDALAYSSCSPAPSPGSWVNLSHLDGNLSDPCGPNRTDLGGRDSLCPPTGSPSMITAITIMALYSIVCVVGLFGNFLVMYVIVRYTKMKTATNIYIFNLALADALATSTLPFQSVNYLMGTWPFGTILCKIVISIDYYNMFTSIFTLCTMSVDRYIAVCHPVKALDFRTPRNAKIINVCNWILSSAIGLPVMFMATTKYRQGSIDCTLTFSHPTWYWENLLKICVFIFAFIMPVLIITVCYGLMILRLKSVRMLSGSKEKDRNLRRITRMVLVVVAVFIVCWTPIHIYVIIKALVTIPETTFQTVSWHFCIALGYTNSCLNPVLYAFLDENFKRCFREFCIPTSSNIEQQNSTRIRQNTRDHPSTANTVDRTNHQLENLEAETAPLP

| Structure (SMILES) | Ki [1] [nM] | Ki [2] [nM] | NK1 pEC50 (CL95%) (human NK1; CHO cells expressing human NK1 (CHONK1), Fluo-4 AM calcium signal, N = 5) | NK1 α ± SEM (human NK1; CHONK1 cells, N = 5) | DOR pEC50 (CL95%) (DOR) | DOR α ± SEM (DOR) | EC50 (human KOR; CHO cells co-expressing human KOR and Gαqi5, Fluo-4 AM calcium signal, n = 5, read-out: KOR pEC50 (CL95%) (converted)) [nM] | KOR α ± SEM (human KOR; [3]) | stool mass (constipation) (mice) | EC50 (human NK1) [nM] | lower potency at NK1 than SP (human NK1; calcium mobilization, CHONK1 cells, from pEC50 values) | NK1 α ± SEM (human NK1; CHONK1 cells, N = 5, SEM) | EC50 (human KOR) [nM] |
| --- | --- | --- | --- | --- | --- | --- | --- | --- | --- | --- | --- | --- | --- |
| CCCC[C@H](NC(=O)[C@H](CC(C)C)NC(=O)[C@@H](Cc1c[nH]c2ccccc12)NC(=O)[C@H](Cc1ccccc1)NC(=O)[C@@H](Cc1c[nH]c2ccccc12)NC(=O)[C@H](CC(N)=O)NC(=O)[C@@H]1CC(=O)NCCCC[C@@H](NC(=O)[C@@H](N)Cc2ccc(O)cc2)C(=O)N[C@@H](Cc2ccccc2)C(=O)N[C@@H](Cc2ccccc2)C(=O)N1)C(N)=O [compound 2, Tyr-[D-Lys-Phe-Phe-Asp]-Asn-D-Trp-Phe-D-Trp-Leu-Nle-NH2] (H-Y[dK]FFDN[dW]F[dW]L[Nle]-NH2; lactam 2-5) | 5.99 ± 0.7 | 202 ± 2.5 | Inactive | Inactive | Crc incomplete | Crc incomplete | 9.77 | 0.99 ± 0.05 | no statistically significant differences | – | – | – | – |
| CSCC[C@H](NC(=O)[C@H](CC(C)C)NC(=O)CNC(=O)[C@H](Cc1ccccc1)NC(=O)[C@H](Cc1ccccc1)NC(=O)[C@H](CCC(N)=O)NC(=O)[C@@H]1CC(=O)NCCCC[C@@H](NC(=O)[C@@H](N)Cc2ccc(O)cc2)C(=O)N[C@@H](Cc2ccccc2)C(=O)N[C@@H](Cc2ccccc2)C(=O)N1)C(N)=O [compound 4, Tyr-[D-Lys-Phe-Phe-Asp]-Gln-Phe-Phe-Gly-Leu-Met-NH2] (H-Y[dK]FFDQFFGLM-NH2; lactam 2-5) | 7.98 ± 0.97 | 225 ± 14 | – | – | Crc incomplete | Crc incomplete | – | 0.92 ± 0.05 | no statistically significant differences | 3.55 | fourfold | 0.96 ± 0.05 | 14.1 |
